The results in this text go back to patent EP0866074A1, “NOVEL NK374186 ANALOGUES OR PHARMACOLOGICALLY ACCEPTABLE SALTS THEREOF” (NIPPON KAYAKU KABUSHIKI KAISHA, priority 1995, dated 1996).

≈ marks a conversion by molar mass, not a printed value.

Assay [1] has as its system cell line A2780 derived from human ovarian cancer. Description: Suppression of cancer cell proliferation (MTT method). In kind it is cell-based. Here is the method: Cells were cultured in an RPMI culture medium supplemented with 10 % calf fetus serum in the presence of 5 % CO2 at 37 °C. The cells were inoculated and cultured in a 96-well plate for one day, followed by addition of one of the pharmaceutical compounds. The cells were treated with the compounds for 3 days, and the effects were assessed by the proliferation-suppressed MTT method. The activities of the compounds on the suppression of the proliferation of Cancer cells are shown below. The cancer cells were of a cell line A2780 derived from human ovarian cancer.

Another assay has as its system graft vs host reaction. Description: Graft vs host reaction (GVH), spleen weight method. In kind it is in vivo, mouse. As to conditions: for Spleen weight/body weight: spleen weighed 7 days after transplantation, BDF mouse; for Index: relative to Untreated = 1.00. Here is the method:
The spleen weight method by Fords, et al. [W.L. Ford et al., Handbook of Experimental Immunology 30, D.M. Weir, ed., Blackwell Scientific Publications, 1978, pp. 1] was followed. Spleen cells of 5×10^6, separated from a C57BL/6 mouse (8 weeks of age, male) as a donor, were transplanted peritoneally in a BDF mouse (7 weeks of age, male) as a recipient. Simultaneously, NK374186, a control agent or a solvent control (0.25 % gum arabic) was injected subcutaneously in the dorsal skin of the BDF mouse. The NK374186 and the control agent were preliminarily dissolved in 0.25 % gum arabic. Furthermore, on day 1 and day 2, the same administration was conducted, and 7 days after the transplantation, the spleen was weighed.

The next assay deals with Human peripheral T cells. Kind of assay: Blastoid transformation via OKT-3 (3H-thymidine incorporation). In kind it is cell-based. Particulars: 2 ng/ml OKT-3 antibody, 72-hr cultivation. Here is the method: For cultivation, RPMI 1640 medium supplemented with 10 % calf fetus serum, 25 mM HEPS buffer, 100 µg/ml streptomycin […] and 100 units/ml penicillin G in a 96-well flat-bottom microplate (coaster) was used. As a mitogen, 2 ng/ml OKT-3 antibody was used.
Human peripheral T cells Were collected from blood drawn with heparin by the density-gradient centrifugation method. 200,000 cells and test compounds at individual concentrations were added to each well to a total volume of 0.2 ml, for 72-hr cultivation. Eight hours before termination of the cultivation, 37 kBq ^3H - thymidine was added to determine the incorporation thereof into the cells. The effects were evaluated on the basis of the ratio of the incorporated ^3H - thymidine in the groups with addition of the test compounds to the incorporated ^3H - thymidine in the control group (Japanese Immunology Association, Methods for Experiment Immunology, pp. 2267 - 2276).
(In general: Dividing cells build labelled thymidine or BrdU into new DNA.)

In the case of `CCCCCCCCCCCCCC1OC(=O)C(COC(C)=O)NC(=O)C(C(C)OP(=O)(O)O)NC(=O)C(C(C)C)NC(=O)C(C)C(O)C1C` (stereo not shown) [NK374186P], the IC50 (commonly the concentration needed to halve the response being measured) in assay [1] (Homo sapiens, 72 h, A2780 cells, treated for 3 days, MTT method) is 33 µg/mL (≈ 44.8 µM). In addition, the “activities on the suppression of the proliferation of the cancer cells” value in assay [1] (result in words, summary of Table 1) is given as “have activities on the suppression of the proliferation of the cancer cells”. Further, the Spleen weight/body weight is listed as 10.01 X10^-3 with graft vs host reaction (Dose 0.5 mg/kg subcutaneously on day 0, 1 and 2); 11.45 X10^-3 with graft vs host reaction (Dose 5.0 mg/kg subcutaneously on day 0, 1 and 2); 12.00 X10^-3 in the assay with graft vs host reaction (Dose 50.0 mg/kg subcutaneously on day 0, 1 and 2). In addition, the results for the Index with graft vs host reaction (Dose 0.5 mg/kg), in the assay with graft vs host reaction (Dose 5.0 mg/kg) and with graft vs host reaction (Dose 50.0 mg/kg) were 2.07, 2.37 and 2.48, respectively. In addition, the “effect on GVH” value in the assay on graft vs host reaction (result in words, summary of Table 3, ratio of spleen weight to body weight increases depending on the dose) was “significant GVH suppression”. Also, the “ratio of the incorporated 3H-thymidine in the groups with addition of the test compounds to the control group” value was determined as 99.6 in the assay with Human peripheral T cells (Concentration 0.03 (unit not given)); 100.6 in the assay on Human peripheral T cells (Concentration 0.1 (unit not given)); 102.6 in the assay with Human peripheral T cells (Concentration 0.3 (unit not given)); 119.7 in the assay with Human peripheral T cells (Concentration 1.0 (unit not given)); 131.4 in the assay with Human peripheral T cells (Concentration 3.0 (unit not given)); 97.7 in the assay on Human peripheral T cells (Concentration 10.0 (unit not given)). Moreover, the “ratio of the incorporated 3H-thymidine in the groups with addition of the test compounds to the control group” value in the assay with Human peripheral T cells (Concentration 30.0 (unit not given)) stood at 69.3.
